Assay results reported in patent US12455218B2, “Methods and compositions for reversing platelet clumping” (Truvian Sciences, Inc., priority 2019, dated 2025).
“Also recorded” adds a separate entry of the source.

Key:
Assay type in all cases: cell-based
[1] = system: platelets in venipuncture and fingerstick blood; assay: Platelet clumping after blood collection into anticoagulant tubes; details: venipuncture and fingerstick blood collected in anticoagulant tubes
Text: Blood used in the following examples came from either venipuncture or fingerstick samples. Standard phlebotomy practices were followed to collect donor venipuncture blood in either BD Vacutainer′ EDTA blood collection tubes or BD Vacutainer′ PST lithium heparin plasma separation blood collection tubes. Standard phlebotomy practices were followed to collect donor fingerstick blood in either LiHep SAFE-T-FILL™ tubes or EDTA SAFE-T-FIL™tubes. All blood samples were stored at room temperature until use. Samples were analyzed within 12 hours of blood collection.
Platelet clumping appeared to occur spontaneously following blood collection. For all studies, an EDTA control sample was used in which blood from either venipuncture or fingerstick were collected into EDTA tubes. EDTA venipuncture control samples were collected into EDTA blood collection tubes from the same donor using the same port as the lithium heparin samples.

[2] = system: platelet clumps in LiHep blood samples; assay: Platelet count per field of view in blood smears of LiHep blood, Azure B stain; details: for recovery of platelet counts: FIG. 3, fingerstick LiHep blood, vortexed, Azure B
Experimental: A series of anti-coagulants are tested for their respective effect in reversing platelet clumping formed in blood samples. Fresh fingerstick blood samples were collected into EDTA and LiHep blood collection tubes as described above. Concentrated EDTA was dried for at least one hour at room temperature in microcentrifuge tubes using a vacuum drying oven. Immediately following collection, a 200 uL fraction of the LiHep sample (“LiHep+EDTA”) was passed through two separate EDTA SAFE-T-FIL™ capillary tubes for a double exposure to the EDTA anticoagulant resulting in a final concentration of about 8.8 mM EDTA in blood Another 200 uL fraction (“LiHep+TruEDTA”) was added to the previously prepared vacuum-dried EDTA resulting in a final concentration of 20 mM EDTA in blood. At 30 minutes post collection, another 200 uL fraction of the LiHep sample (“LiHep+EDTA 30 min”) was passed through two separate EDTA SAFE-T-FILL™ capillary tubes for a double exposure to the EDTA anticoagulant. All samples were pulse vortexed with three, five-second bursts at the maximum vortex setting immediately following addition to EDTA. At 30 minutes post collection, all samples were then stained using an Azure B solution from the Differential Quik Stain™ Kit (Modified Giemsa) from Polysciences, Inc. Azure B was added to blood sample at a 1:1 ratio and pipette mixed. A standard blood smear was performed on all samples. Cells were imaged using the bright field setting on an Echo Revolve™ microscope at 20× magnification. Between six to seven different fields of view were captured. Images were analyzed using Image J and the number of platelets present in each field of view was manually counted. Error bars indicate standard deviation of the data set.
Particularly, fresh fingerstick blood samples were collected into EDTA and LiHep blood collection tubes as described above. Concentrated EDTA was dried for at least one hour at room temperature in microcentrifuge tubes using a vacuum drying oven. […] Images were analyzed using Image J and the number of platelets present in each field of view was manually counted. […]

white blood cells = assay: White blood cell morphology, AO stain, fluorescence microscopy; details: FIG. 2, fingerstick LiHep blood, 60 M EDTA, 3×EDTA sample 60 mM
Experimental: Next, it was examined whether EDTA exposure impacts blood cell morphology. Particularly, fresh fingerstick blood samples were collected into EDTA and LiHep blood collection tubes. Concentrated EDTA was dried for at least one hour at room temperature in microcentrifuge tubes using a vacuum drying oven. A 200 uL fraction of the LiHep sample (“1×”) was added to the previously prepared vacuum-dried EDTA resulting in a final concentration of 20 mM EDTA in blood. Another 200 uL fraction of the LiHep sample (“3×”) was added to the previously prepared vacuum-dried EDTA resulting in a final concentration of 60 mM EDTA in blood. […] Cells were imaged using the fluorescence setting on an Echo Revolve microscope. […] To capture the green fluorescence of AO, which labeled the nuclei of white blood cells, a blue LED light source with excitation filter at 470/40 nm was paired with emission filter at 525/50 nm, with a dichroic mirror at 495 nm. To capture the red fluorescence of AO, which labeled the cytoplasmic compartments of white blood cells, the same blue LED light source was paired with emission filter at 635/60 nm with a dichroic mirror at 600 nm. […]
Particularly, fresh venipuncture blood samples were collected into EDTA and LiHep blood collection tubes as described above. […] Cells were imaged using the fluorescence setting on an Echo Revolve™ microscope. […]

[3] = system: platelet clumps in LiHep blood samples; assay: Platelet count per field of view in blood smears of LiHep blood, acridine orange (AO) stain; details: for declumping activity / increase in platelet count due to reversal of platelet clumping: Example 8, FIG. 7 and 8, LiHep blood
Experimental: Particularly, fresh venipuncture blood samples were collected into EDTA and LiHep blood collection tubes as described above. Concentrated EDTA was dried for at least one hour at room temperature in microcentrifuge tubes using a vacuum drying oven. […] This sample was pulse vortexed with three, ten second bursts at the maximum vortex setting. […] This sample was sonicated in a water bath sonicator for 1 minute. […] This sample was pipette mixed using a Tecan Carvo Omni™ automated pipettor. To mix, 150 uL of sample was aspirated and dispensed at 1 mL/s 0.5 mm from the bottom of the tube. This mixing cycle was repeated 30 times. All samples were then stained using an acridine orange (AO). AO was added to blood sample at a final concentration of 10 ug/mL, pipette mixed and incubated for 5 minutes at room temperature. A standard blood smear was performed on all samples. A coverslip was placed on top of the sample immediately following the blood smear to prevent sample drying out. Cells were imaged using the fluorescence setting on an Echo Revolve™ microscope. AO is a pH-sensitive cationic dye. When bound to double-stranded DNA (for example, in the nuclear compartment), the dye fluoresces green with an excitation maximum at 502 nm and emission maximum at 525 nm. When bound to single stranded DNA and RNA (for example, in the cytoplasm) or when the dye is in an acidic environment (for example, in lysosomes), the dye fluoresces red with an excitation maximum at 460 nm and emission maximum at 650 nm. […] Between five to eight different fields of view were captured. Images were analyzed using Image J and the number of platelets present in each field of view was manually counted. Error bars indicate standard deviation of the data set.
Particularly, fresh venipuncture blood samples were collected into EDTA and LiHep blood collection tubes as described above. Concentrated EDTA was dried for at least one hour at room temperature in microcentrifuge tubes using a vacuum drying oven. […] Both samples were pulse vortexed with three, ten-second bursts at the maximum vortex setting. Samples were then stained using acridine orange (AO). AO was added to blood sample at a final concentration of 10 ug/mL, pipette mixed and incubated for 5 minutes at room temperature. A standard blood smear was performed on all samples. A coverslip was placed on top of the sample immediately following the blood smear to prevent sample drying out. Cells were imaged using the fluorescence setting on an Echo Revolve™ microscope. AO is a pH-sensitive cationic dye. When bound to double-stranded DNA (for example, in the nuclear compartment), the dye fluoresces green with an excitation maximum at 502 nm and emission maximum at 525 nm. When bound to single stranded DNA and RNA (for example, in the cytoplasm) or when the dye is in an acidic environment (for example, in lysosomes), the dye fluoresces red with an excitation maximum at 460 nm and emission maximum at 650 nm. […] Between five to seven different fields of view were captured. Images were analyzed using Image J and the number of platelets present in each field of view was manually counted. Error bars indicate standard deviation of the data set.
To investigate the ability of citric acid to reverse platelet clumping, venipuncture blood samples were collected into EDTA and LiHep blood collection tubes as described above. […] A second 15 μL fraction of LiHep blood was treated with citric acid at a final concentration of 5 mM. To encourage platelet declump, samples were then vortexed. Samples were stained using acridine orange and imaged using an Echo Revolve™ Microscope at 20× magnification. Images were analyzed using Image J and the number of platelets present in each field of view (FOV) across 10 FOVs was manually counted.
Venipuncture blood samples were collected into EDTA and LiHep blood collection tubes as described above. A 15 μL aliquot of LiHep blood was treated with 5 mM NTA an vortexed vigorously.

Lithium heparin
platelet clumping following blood collection [1]: Significant amount of platelet clumping

O=C(O)CN(CCN(CC(=O)O)CC(=O)O)CC(=O)O [EDTA, ethylenediaminetetraacetic acid]
recovery of platelet counts ([2]; 17.6 mM EDTA (LiHep+EDTA)): greater than 40% | recovery of platelet counts ([2]; 20 mM EDTA (LiHep+TruEDTA)): greater than 40% | reversed platelet clumping as compared to control groups ([2]; FIG. 3 legend, blood collected in LiHep tubes): about 40% | morphology of white blood cells (white blood cells): negatively impact | platelet clumping following blood collection [1]: no detectible platelet clumping

O=C(O)CC(O)(CC(=O)O)C(=O)O [citric acid, 2-hydroxypropane-1,2,3-tricarboxylic acid]
declumping activity / increase in platelet count due to reversal of platelet clumping [3]: increase in platelet count | declumping activity / increase in platelet count due to reversal of platelet clumping ([3]; listed as Citric acid): showed declumping activity | recovery of platelet counts ([3]; FIG. 7, venipuncture LiHep blood, citric acid 5 mM, vortexed, 10 FOVs): 66%

O=C(O)CN(CC(=O)O)CC(=O)O [NTA, N,N-bis(carboxymethyl)glycine]
declumping activity / increase in platelet count due to reversal of platelet clumping [3]: showed declumping activity; also recorded: increase in platelet count | recovery of platelets ([3]; FIG. 8, venipuncture LiHep blood, 5 mM NTA, vortexed vigorously, 10 FOVs): 71%
